# Key:
# [1] = tested on: isolated mouse pancreatic islets; assay type: cell-based
# Protocol: Experiments were conducted as previously described. Islets were incubated in 0.3 ml EC1 or EC2 media (ESM Table 2) supplemented with glucose and other reagents as indicated.
# (§1) All data are reported, unless otherwise stated, as mean values ± SEM for the indicated number of experiments using islets from multiple mice. For hormone release studies, islets were isolated and pooled from 4–16 mice. These islets were then subdivided into groups of 12–20 size-matched islets. Each unique set of islets counted as an experiment with the experiments repeated on 2–4 days. Similarly, each unique group of human islets was treated as an experiment. […] In the Ca^2+ imaging and granule docking experiment, each cell represents an experiment making sure that cells from multiple donors/animals were used. For the in vivo experiments and the perfused pancreas, each mouse count represents an experiment. For two groupings, a t test was conducted. For multiple comparisons, one-way ANOVA was conducted. All statistical tests were performed using Graphpad Prism (version 9.1.0; graphpad.com).
# human pancreatic islets = experiment: Glucagon secretion in human islets (ELISA); assay type: cell-based; settings: human islets, 10 pmol/l, 1 mmol/l glucose
# Protocol: Human pancreatic islets were isolated (with ethical approval and clinical consent) as previously described. Islets from the pancreases of 18 healthy donors and five donors with type 2 diabetes were used (see electronic supplementary material [ESM] Table 1; ESM Human islets checklist).
# (§2) Mouse islets were used acutely, except for studies with PTX, wherein islets were treated overnight with the toxin. Human islets were maintained in culture for up to 48 h in RPMI medium containing 10% (vol./vol.) FCS, 1% (vol./vol.) penicillin/streptomycin and 5 mmol/l glucose. Experiments were conducted as previously described. Islets were incubated in 0.3 ml EC1 or EC2 media (ESM Table 2) supplemented with glucose and other reagents as indicated. Glucagon was determined by ELISA (Mercodia).
# as §1, with “graphpad.com). It was ascertained that the data were normally distributed.” for “graphpad.com).”
# [2] = tested on: isolated mouse pancreatic islets; experiment: Somatostatin secretion in isolated mouse islets (RIA); assay type: cell-based; settings: 1 mmol/l glucose, groups of 20 islets
# Protocol: as §2
# (§3) Insulin and somatostatin were determined by RIA (Millipore and Diasource ImmunoAssays, respectively) as described previously. In these experiments, rates of release are expressed as % of contents unless otherwise indicated.
# [3] = tested on: isolated mouse pancreatic islets; experiment: Insulin secretion in isolated mouse islets (RIA); assay type: cell-based
# Protocol: as §2, with “indicated.” for “indicated. Glucagon was determined by ELISA (Mercodia).”
# as §3
# [4] = tested on: PKA activity in alpha cells; experiment: PKA activity measurements (AKAR3) in alpha cells in intact islets; assay type: cell-based, mouse
# Protocol: PKA activity was measured using AKAR3 as previously described. The cells were continuously superfused at a rate of 60 μl/min with EC4 (ESM Table 2).
# mouse alpha cells = experiment: TIRF imaging of docked secretory granules in mouse alpha cells; assay type: cell-based
# Protocol: Cells were imaged using total internal reflection fluorescence (TIRF) microscopy (AxioObserver Z1 with a ×100/1.45 objective [Carl Zeiss] and a diode-pumped solid state laser at 491 nm). For these measurements, EC1 was used (ESM Table 2). Images from cells infected with preproglucagon promoter (PPPG)-neuropeptide Y (NPY)-enhanced green fluorescent protein (EGFP) virus were recorded using an electron-multiplying charge-coupled device camera (Photometrics Evolve) using ZEN blue. Single images of cells were acquired to measure the number of docked granules. Incoming and outgoing granules during visiting, docking and undocking were determined from multiple frame movies as described previously. Candidate docking or undocking events were found manually as granules that approached the TIRF field with an axial component and became laterally confined for at least two frames. We defined docking as granules that remained confined for at least 1 min. Visitors were those granules that remained for <1 min after appearing at the plasma membrane. Undocking was defined as slow movement of a previously docked granule away from its docking site. Granule density was calculated using a script that used the built-in ‘find maxima’ function in ImageJ (version 1.53c; http://rsbweb.nih.gov/ij) for spot detection.
# P/Q-type Ca^2+ channels = experiment: [Ca2+]i imaging of depolarisation-evoked Ca2+ entry in alpha cells (Gcg-GCaMP6f islets); assay type: cell-based, mouse; settings: in the presence of GLP-1(9–36) 10 pmol/l; p=0.26
# Protocol: For live-cell cytoplasmic free Ca^2+ concentration ([Ca^2+]i) imaging experiments, Gcg-GCaMP6f islets were immobilised to a poly-L-lysine-coated coverslip fixed in a custom-built imaging chamber filled with EC3 (ESM Table 2). [Ca^2+]i was measured in islets from mice expressing GCaMP6f in alpha cells. [Ca^2+]i imaging experiments were then performed using an inverted LSM 510 confocal microscope (Zeiss) controlled with ZEN Black (Zeiss), using a ×40/1.3 oil immersion objective. Time-lapse images were collected every 0.98 s with a frame size of 256×256 pixels, with the bath solution (EC3) perfused at a rate of 0.4 ml/min and heated to 37°C. GCaMP6f was excited by an argon laser (488 nm) and emission was collected at 510 nm.
# [Ca^2+]i imaging videos were analysed using the Fiji imaging processing package. The mean fluorescence (F) of each region of interest was normalised to baseline signal (F0) and expressed as F/F0 before exporting into ClampFit (version 10.7; Molecular Devices, CA, USA), where baseline was corrected and AUC was calculated.
compound,measurement,setting,value
CC(C)NCC(O)c1ccc(O)c(O)c1 (stereo not drawn) [isoprenaline],stimulation of glucagon secretion,"[1]; mouse islets, 1 mmol/l glucose",> 2.2 fold
CCCOc1ccc(Br)cc1-c1cc(-c2ccc(Cl)cc2)[nH]c1-c1ccncc1 [L-168049],effect on the glucagonostatic effect of GLP-1(9–36),"[1]; mouse islets, L-168049 100 nmol/l, GLP-1(9–36) 10 pmol/l",abolished
CC[C@H](C)[C@H](NC(=O)[C@H](Cc1ccccc1)NC(=O)[C@H](CCC(=O)O)NC(=O)[C@H](CCCCN)NC(=O)[C@H](C)NC(=O)[C@H](C)NC(=O)[C@H](CCC(N)=O)NC(=O)CNC(=O)[C@H](CCC(=O)O)NC(=O)[C@H](CC(C)C)NC(=O)[C@H](Cc1ccc(O)cc1)NC(=O)[C@H](CO)NC(=O)[C@H](CO)NC(=O)[C@@H](NC(=O)[C@H](CC(=O)O)NC(=O)[C@H](CO)NC(=O)[C@@H](NC(=O)[C@H](Cc1ccccc1)NC(=O)[C@@H](NC(=O)CNC(=O)[C@H](CCC(=O)O)NC(=O)[C@H](C)NC(=O)[C@@H](N)Cc1c[nH]cn1)[C@@H](C)O)[C@@H](C)O)C(C)C)C(=O)N[C@@H](C)C(=O)N[C@@H](Cc1c[nH]c2ccccc12)C(=O)N[C@@H](CC(C)C)C(=O)N[C@H](C(=O)N[C@@H](CCCCN)C(=O)NCC(=O)N[C@@H](CCCNC(=N)N)C(N)=O)C(C)C [GLP-1(7–36)],inhibitory effect on glucagon secretion in Glp1r−/− mouse islets,"[1]; 10 pmol/l, Glp1r−/− islets, 1 mmol/l glucose",persisted
same,inhibitory effect on glucagon secretion in Glp1r−/− islets after PTX,"[1]; 10 pmol/l, Glp1r−/− islets, PTX pretreatment",abolished
same,change of the inhibitory effect on glucagon secretion by exendin(9–39),"[1]; 10 pmol/l, exendin(9–39) 1 μmol/l",reduced
same,glucagonostatic effect in the presence of exendin(9–39),"[1]; 10 pmol/l, exendin(9–39) 1 μmol/l, 1 mmol/l glucose",retained their glucagonostatic effect
same,glucagonostatic effect in the presence of the PKA inhibitor 8-Br-Rp-cAMPS,"[1]; 8-Br-Rp-cAMPS 10 μmol/l, 1 mmol/l glucose",not affected
same,"glucagonostatic effect remaining with exendin(9–39), in the presence of sitagliptin",[1]; exendin(9–39) plus DPP-4 inhibitor sitagliptin,abolished
same,inhibition of glucagon secretion,"[1]; islets cultured overnight without PTX, 1 mmol/l glucose",~ 50%
same,inhibitory effect on glucagon secretion after PTX pretreatment,"[1]; overnight PTX 100 ng/ml, 1 mmol/l glucose",unaffected
same,IC50,"[1]; read-out: half-maximal inhibitory concentration (IC50) for inhibition of glucagon secretion, isolated mouse islets, 1 mmol/l glucose, groups of 12 islets from 4–6 mice, glucagon ELISA",2.5 pM
same,inhibition of glucagon secretion,human pancreatic islets,~ 50%
same,concentration at which stimulation of somatostatin secretion was already detectable,[2],10 pmol/L
same,insulinotropic effect in Glp1r−/− mouse islets,[3]; Glp1r−/− islets,lost
same,concentrations at which stimulation of insulin secretion attained statistical significance,"[3]; mouse islets, 1 mmol/l glucose",≥ 100 pmol/L
same,effect on PKA activity in alpha cells,[4]; 10 pmol/l,no inhibitory effect
same,effect on cAMP/PKA activity in alpha cells,"[4]; 10,000 pmol/l",increased cAMP/PKA activity
CC1=NS(=O)(=O)c2cc(Cl)ccc2N1 [diazoxide],reduction of submembrane granule density,mouse alpha cells; 200 μmol/l,~ 40%
ω-agatoxin,effect on glucagon secretion,"[1]; 200 nmol/l, 1 mmol/l glucose",inhibited glucagon secretion nearly as strongly as GLP-1(9–36)
same,reduction of the number of docked granules,mouse alpha cells; 200 nmol/l,to the same extent as GLP-1(9–36)
same,further change of Ca2+ entry on addition in the presence of GLP-1(9–36),P/Q-type Ca^2+ channels,−8±4%

# Source: publication PMC10844371 (Diabetologia, 2023)
